Source: ChEMBL document CHEMBL1155610, “A new indanone from the marine cyanobacterium Lyngbya majuscula that inhibits hypoxia-induced activation of the VEGF promoter in Hep3B cells” (J Nat Prod, 2000)
Calls of active or inactive are those of the source. No cut-off for these calls is given here.

Assays:
Type in all cases: functional, cell-based
Hep 3B2 [1] = experiment: Inhibition of hypoxia-induced activation of VEGF gene promoter in human Hep3B cells after 18 hrs by luciferase reporter gene assay
Hep 3B2 [2] = experiment: Inhibition of hypoxia-induced VEGF165 protein secretion in human Hep3B cells after 18 hrs by ELISA
Hep 3B2 [3] = experiment: Effect on luciferase reporter gene expression in human Hep3B cells after 18 hrs
Hep 3B2 [4] = experiment: Growth inhibition of human Hep3B cells after 18 hrs

For `COC1CC(=O)c2c(C=O)cc(C)cc21` (centres undefined), the IC50 (Hep 3B2 [1]) was 25 µM, the Activity (Hep 3B2 [2]) was “inactive” and the Activity (Hep 3B2 [3]) was “inactive”. For the same compound, the Activity (Hep 3B2 [4]) was “inactive”.
